Measured values from US9420780B2, “Composition, method for producing the composition, and phytosanitary formulation containing same” (RHODIA OPERATIONS, priority 2011, dated 2016).

Assay: Solubility of agrochemical active ingredients in the solvent compositions: visual observation at 25° C., at 0° C. for 7 days (CIPAC MT39), and at 0° C. with nucleation
Assay type: physicochemical
Details: tebuconazole 300 g/L EC
Protocol: 1. Description of the Tests Performed: The formulations were prepared by dilution of various active ingredients reported in the table here below in the compositions 1 to 4 (solvents according to the invention) synthesised here above: a) Visual observation at 25° C.: the appearance of the formulation is noted and the possible presence of crystals is eventually recorded. b) Visual observation at 0° C.: the formulation is placed for a period of 7 days at 0° C. and the appearance of the formulation is noted and the possible presence of crystals is eventually recorded (CIPAC test MT39). c) Visual observation at 0° C. with nucleation (for introduction into the liquid of a crystal of the pure active ingredient): […] The appearance of the formulation is noted and the possible presence of crystals or growth of the crystal introduced is eventually recorded. The active ingredients used are commercially available.

## CN1CCCC1=O [Solvent 6, N-methylpyrrolidone]
  State of the solution at +25° C.: Clear
7 days at 0° C.
  State of the solution at 0° C.: Clear
Crystal introduced, further 7 days at 0° C.
  State of the solution at 0° C. after seeding: Crystal
